Laboratory results reported in PubChem BioAssay AID256 (DTP/NCI, 2004).
Inconclusive results and toxic doses are left out.

Test system: CD2F1 mice, L1210 leukemia ip, survival T/C
Assay: NCI In Vivo Anticancer Drug Screen. Data for tumor model L1210 Leukemia (intraperitoneal) in CD2F1 (CDF1) mice
Conditions: endpoint: mean survival time, higher = longer survival
Method: The antitumor activity of compounds was measured in mice bearing transplantable tumors. Survival or tumor size were measured and the results are expressed as the measurement made in the treated group (T) divided by the measurement made in the vehicle treated control group (C). The tumor model used in this assay is L1210 Leukemia (intraperitoneal) in CD2F1 (CDF1) mice

[1] = dose: 100.0 mg/kg/injection, schedule: Q01DX001 (ip), vehicle: saline with Tween-80
[2] = dose: 200.0 mg/kg/injection, schedule: Q01DX001 (ip), vehicle: saline with Tween-80
[3] = dose: 400.0 mg/kg/injection, schedule: Q01DX001 (ip), vehicle: saline with Tween-80
[4] = dose: 100.0 mg/kg/injection, schedule: Q04DX003 (ip), vehicle: saline with Tween-80
[5] = dose: 200.0 mg/kg/injection, schedule: Q04DX003 (ip), vehicle: saline with Tween-80
[6] = dose: 400.0 mg/kg/injection, schedule: Q04DX003 (ip), vehicle: saline with Tween-80
[7] = dose: 25.0 mg/kg/injection, schedule: Q01DX009 (ip), vehicle: saline
[8] = dose: 100.0 mg/kg/injection, schedule: Q01DX009 (ip), vehicle: other
[9] = dose: 100.0 mg/kg/injection, schedule: Q01DX009 (ip), vehicle: saline with Tween-80
[10] = dose: 200.0 mg/kg/injection, schedule: Q01DX009 (ip), vehicle: saline with Tween-80

## O=C(O)CCC(=O)c1ccc2c(c1)CCCC2
dose: 1.56 mg/kg/injection, schedule: Q04DX002 (ip), vehicle: saline with Tween-80
  T/C: 97 % of control
dose: 3.13 mg/kg/injection, schedule: Q04DX002 (ip), vehicle: saline with Tween-80
  T/C: 97 % of control
dose: 6.25 mg/kg/injection, schedule: Q04DX002 (ip), vehicle: saline with Tween-80
  T/C: 97 % of control
dose: 12.5 mg/kg/injection, schedule: Q04DX002 (ip), vehicle: saline with Tween-80
  T/C: 104 % of control

## CNC(=S)N(/N=C/c1cc(Cl)cc(Cl)c1O)c1ccccc1
[1]
  T/C: 87 % of control
[2]
  T/C: 87 % of control
[3]
  T/C: 91 % of control

## CCCCC(O)CCCCCCCCCC(=O)O (stereo not given)
[4]
  T/C: 97 % of control
[5]
  T/C: 101 % of control

## CCCCCC(C)NCCO (stereo not given)
dose: 75.0 mg/kg/injection, schedule: Q01DX001 (ip), vehicle: saline
  T/C: 98 % of control

## CCNC(=O)Nc1nc2ccccc2s1
dose: 100.0 mg/kg/injection, schedule: Q04DX002 (ip), vehicle: saline with Tween-80
  T/C: 103 % of control
dose: 200.0 mg/kg/injection, schedule: Q04DX002 (ip), vehicle: saline with Tween-80
  T/C: 103 % of control
dose: 400.0 mg/kg/injection, schedule: Q04DX002 (ip), vehicle: saline with Tween-80
  T/C: 92 % of control

## C[N+](C)(C)CC1CO1 (stereo not given)
dose: 100.0 mg/kg/injection, schedule: Q04DX003 (ip), vehicle: saline
  T/C: 106 % of control
dose: 200.0 mg/kg/injection, schedule: Q04DX003 (ip), vehicle: saline
  T/C: 94 % of control

## CN(C)C(=S)Nc1ccc(Cl)cc1
[4]
  T/C: 98 % of control
[5]
  T/C: 98 % of control
[6]
  T/C: 100 % of control

## COc1ccc2c(oc(=O)c3c(Cl)nc(C)c(C)c32)c1OC
dose: 25.0 mg/kg/injection, schedule: Q01DX009 (ip), vehicle: Klucel (hydroxypropylcellulose) (HPC)
  T/C: 102 % of control
dose: 50.0 mg/kg/injection, schedule: Q01DX009 (ip), vehicle: Klucel (hydroxypropylcellulose) (HPC)
  T/C: 95 % of control
dose: 100.0 mg/kg/injection, schedule: Q01DX009 (ip), vehicle: Klucel (hydroxypropylcellulose) (HPC)
  T/C: 93 % of control
dose: 200.0 mg/kg/injection, schedule: Q01DX009 (ip), vehicle: Klucel (hydroxypropylcellulose) (HPC)
  T/C: 93 % of control

## OC(CF)CF
dose: 12.5 mg/kg/injection, schedule: Q01DX009 (ip), vehicle: saline
  T/C: 106 % of control
[7]
  T/C: 118 % of control

## O=C1CCCC2c3ccccc3NC12 (stereo not given)
dose: 100.0 mg/kg/injection, schedule: Q01DX001 (ip), vehicle: saline
  T/C: 98 % of control
dose: 200.0 mg/kg/injection, schedule: Q01DX001 (ip), vehicle: saline
  T/C: 102 % of control
dose: 400.0 mg/kg/injection, schedule: Q01DX001 (ip), vehicle: saline
  T/C: 101 % of control

## N#CC1(Nc2ccccc2)CCCCC1
dose: 50.0 mg/kg/injection, schedule: Q01DX009 (ip), vehicle: other
  T/C: 95 % of control
[8]
  T/C: 102 % of control
[4]
  T/C: 97 % of control
[5]
  T/C: 100 % of control

## O=C(Nc1c(Cl)cccc1Cl)OCCOc1ccc(Cl)cc1
dose: 50.0 mg/kg/injection, schedule: Q01DX009 (ip), vehicle: saline with Tween-80
  T/C: 94 % of control
[9]
  T/C: 105 % of control
[10]
  T/C: 105 % of control

## O=P(O)(O)OCC(O)CO.[NH-]C1CCCCC1[NH-].[Pt+2] (stereo not given)
dose: 1.17 mg/kg/injection, schedule: Q04DX003 (ip), vehicle: other
  T/C: 115 % of control
dose: 9.38 mg/kg/injection, schedule: Q04DX003 (ip), vehicle: other
  T/C: 231 % of control
dose: 18.75 mg/kg/injection, schedule: Q04DX003 (ip), vehicle: other
  T/C: 186 % of control
dose: 37.5 mg/kg/injection, schedule: Q04DX003 (ip), vehicle: other
  T/C: 104 % of control

## OC(CCC(O)CSc1ccccc1)CSc1ccccc1 (stereo not given)
[8]
  T/C: 100 % of control
dose: 200.0 mg/kg/injection, schedule: Q01DX009 (ip), vehicle: other
  T/C: 100 % of control
dose: 400.0 mg/kg/injection, schedule: Q01DX009 (ip), vehicle: other
  T/C: 96 % of control

## CN(C)N=Nc1ccccc1[N+](=O)[O-]
dose: 53.0 mg/kg/injection, schedule: Q01DX001 (ip), vehicle: saline
  T/C: 105 % of control
dose: 53.0 mg/kg/injection, schedule: Q01DX009 (ip), vehicle: saline
  T/C: 104 % of control
dose: 79.0 mg/kg/injection, schedule: Q01DX001 (ip), vehicle: saline
  T/C: 105 % of control
dose: 79.0 mg/kg/injection, schedule: Q01DX009 (ip), vehicle: saline
  T/C: 109 % of control
dose: 119.0 mg/kg/injection, schedule: Q01DX001 (ip), vehicle: saline
  T/C: 108 % of control
dose: 119.0 mg/kg/injection, schedule: Q01DX009 (ip), vehicle: saline
  T/C: 118 % of control
dose: 178.0 mg/kg/injection, schedule: Q01DX001 (ip), vehicle: saline
  T/C: 115 % of control
dose: 600.0 mg/kg/injection, schedule: Q01DX001 (ip), vehicle: saline
  T/C: 118 % of control

## OCCOc1ccc(Cl)cc1Cl
dose: 75.0 mg/kg/injection, schedule: Q04DX003 (ip), vehicle: saline with Tween-80
  T/C: 98 % of control
dose: 150.0 mg/kg/injection, schedule: Q04DX003 (ip), vehicle: saline with Tween-80
  T/C: 97 % of control
dose: 300.0 mg/kg/injection, schedule: Q04DX003 (ip), vehicle: saline with Tween-80
  T/C: 98 % of control

## CC1=CCC=C(CNc2ncnc3nc[nH]c23)C1
[4]
  T/C: 87 % of control

## CC(=O)OC(N=Nc1ccccc1)(c1ccccc1)c1ccccc1
[4]
  T/C: 98 % of control
[5]
  T/C: 92 % of control
[6]
  T/C: 93 % of control

## COC1=C(C)C(=O)C2=C(C1=O)C(COC(N)=O)C1(OC)C3C(CN21)N3C(=O)c1ccccc1 (stereo not given)
dose: 7.5 mg/kg/injection, schedule: Q01DX001 (ip), vehicle: acetone
  T/C: 106 % of control
dose: 10.0 mg/kg/injection, schedule: Q01DX001 (ip), vehicle: acetone
  T/C: 112 % of control
dose: 15.0 mg/kg/injection, schedule: Q01DX001 (ip), vehicle: acetone
  T/C: 112 % of control

## CCCCCCCCCCCCCCCCOc1ccc(S(=O)(=O)N(C)C)cc1[N+](=O)[O-]
[4]
  T/C: 90 % of control
[5]
  T/C: 96 % of control
[6]
  T/C: 90 % of control

## CC(C)(C(O)c1ccccc1)[N+](=O)[O-] (stereo not given)
[1]
  T/C: 105 % of control
[9]
  T/C: 102 % of control
[2]
  T/C: 102 % of control
[10]
  T/C: 95 % of control
[3]
  T/C: 98 % of control
dose: 400.0 mg/kg/injection, schedule: Q01DX009 (ip), vehicle: saline with Tween-80
  T/C: 96 % of control

## Cc1cccc(C2=NCCN2)c1C
dose: 5.0 mg/kg/injection, schedule: Q01DX001 (ip), vehicle: saline with Tween-80
  T/C: 95 % of control
dose: 10.0 mg/kg/injection, schedule: Q01DX001 (ip), vehicle: saline with Tween-80
  T/C: 97 % of control
dose: 20.0 mg/kg/injection, schedule: Q01DX001 (ip), vehicle: saline with Tween-80
  T/C: 97 % of control

## C1C2CC3CC3CC12 (stereo not given)
[4]
  T/C: 93 % of control

## CCOP(=S)(OCC)Oc1cccc(NC(=O)N(C)C)c1
[4]
  T/C: 96 % of control
[5]
  T/C: 91 % of control
[6]
  T/C: 99 % of control

## Clc1ccc2scc3c4ccccc4nc-3c2c1
[7]
  T/C: 104 % of control
dose: 50.0 mg/kg/injection, schedule: Q01DX009 (ip), vehicle: saline
  T/C: 101 % of control

## COC1=CCC2=C(CCO2)C1
dose: 100.0 mg/kg/injection, schedule: Q01DX009 (ip), vehicle: acetone
  T/C: 91 % of control
dose: 200.0 mg/kg/injection, schedule: Q01DX009 (ip), vehicle: acetone
  T/C: 98 % of control
dose: 400.0 mg/kg/injection, schedule: Q01DX009 (ip), vehicle: acetone
  T/C: 100 % of control

## COC(=O)CNc1ccn(C2OC(CO)C(O)C2O)c(=O)n1 (stereo not given)
dose: 12.5 mg/kg/injection, schedule: Q01DX005 (ip), vehicle: distilled water + Tween-80
  T/C: 96 % of control
dose: 25.0 mg/kg/injection, schedule: Q01DX005 (ip), vehicle: distilled water + Tween-80
  T/C: 100 % of control
dose: 50.0 mg/kg/injection, schedule: Q01DX005 (ip), vehicle: distilled water + Tween-80
  T/C: 100 % of control
dose: 100.0 mg/kg/injection, schedule: Q01DX005 (ip), vehicle: distilled water + Tween-80
  T/C: 97 % of control
dose: 200.0 mg/kg/injection, schedule: Q01DX005 (ip), vehicle: distilled water + Tween-80
  T/C: 103 % of control
